Measurements taken from US10370333B2 (Sanford Burnham Prebys Medical Discovery Institute, priority 2012, dated 2019).

Target: TNAP (Homo sapiens (Human), UniProt P05186)
Assay: TNAP (PPi) inhibition assay, pyrophosphate as substrate
Format: biochemical
Method in brief: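 Enzyme source was conditioned serum-free medium from COS-1 cells transiently expressing tagged human TNAP, dialyzed against TBS with MgCl2/ZnCl2. Activity on natural substrate PPi at pH 7.4 read as liberated phosphate (Biomol Green).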

| IC50 [nM] | SMILES |
| --- | --- |
| < 100 | COc1ccc(OC)c(S(=O)(=O)Nc2cncc(C(=O)N3CCN(C)CC3)c2)c1 [Example IV-44, 2,5-Dimethoxy-N-(5-(4-methylpiperazine-1-carbonyl)pyridin-3-yl)benzenesulfonamide] |
| < 100 | COc1ccc(Br)cc1S(=O)(=O)Nc1cnc2ccc(O)cc2c1 [Example IX-1, 5-Bromo-N-(6-hydroxyquinolin-3-yl)-2-methoxybenzenesulfonamide] |
| < 100 | COc1ccc2ncc(NS(=O)(=O)c3cc(Br)ccc3OC)cc2c1 [Example IX-2, 5-Bromo-2-methoxy-N-(6-methoxyquinolin-3-yl)benzenesulfonamide] |
| < 100 | COc1ccc(OC)c(S(=O)(=O)Nc2cnc3ccc(O)cc3c2)c1 [Example IX-3, N-(6-Hydroxyquinolin-3-yl)-2,5-dimethoxybenzenesulfonamide] |
| < 100 | COC(=O)c1ccc2ncc(NS(=O)(=O)c3cc(Br)ccc3OC)cc2c1 [Example IX-4, 3-(5-Bromo-2-methoxy-benzenesulfonylamino)-quinoline-6-carboxylic Acid methyl ester] |
| < 100 | COc1ccc(Br)cc1S(=O)(=O)Nc1cnc2ccc(C(N)=O)cc2c1 [Example IX-6, 3-(5-Bromo-2-methoxy-benzenesulfonylamino)-quinoline-6-carboxylic Acid Amide] |
| < 100 | CCCNC(=O)c1ccc2ncc(NS(=O)(=O)c3cc(OC)ccc3OC)cc2c1 [Example IX-12, 3-(2,5-Dimethoxy-benzenesulfonylamino)-quinoline-6-carboxylic Acid Propylamide] |
| 100 to 1000 | COc1ccc(OC)c(S(=O)(=O)Nc2cnc3ccc(CN(C)C)cc3c2)c1 [Example IX-15] |
| > 1000 | COc1ccc(Br)cc1S(=O)(=O)Nc1ccsc1 [Example V-1, 5-Bromo-2-methoxy-N-(thiophen-3-yl)benzenesulfonamide] |
| > 1000 | COc1ccc(OC)c(S(=O)(=O)Nc2ccsc2)c1 [Example V-2, 2,5-Dimethoxy-N-(thiophen-3-yl)benzenesulfonamide] |
| > 1000 | COc1ccc(OC)c(S(=O)(=O)Nc2ncco2)c1 [Example V-4, 2,5-Dimethoxy-N-oxazol-2-yl-benzenesulfonamide] |
| 100 to 1000 | COc1ccc(Br)cc1S(=O)(=O)Nc1cc(C)no1 [Example V-5, 5-Bromo-2-methoxy-N-(3-methyl-isoxazol-5-yl)-benzenesulfonamide] |
| 100 to 1000 | COc1ccc(OC)c(S(=O)(=O)Nc2cc(C)no2)c1 [Example V-6, 2,5-Dimethoxy-N-(3-methyl-isoxazol-5-yl)-benzenesulfonamide] |
| > 1000 | COc1ccc(Br)cc1S(=O)(=O)Nc1cc[nH]n1 [Example V-7, 5-Bromo-2-methoxy-N-(1H-pyrazol-3-yl)-benzenesulfonamide] |
| > 1000 | COc1ccc(Br)cc1S(=O)(=O)Nc1ccn(C)n1 [Example V-9, 5-Bromo-2-methoxy-N-(1-methyl-1H-pyrazol-3-yl)-benzenesulfonamide] |
| > 1000 | COc1ccc(OC)c(S(=O)(=O)Nc2ccn(C)n2)c1 [Example V-10, 2,5-Dimethoxy-N-(1-methyl-1H-pyrazol-3-yl)-benzenesulfonamide] |
| > 1000 | COc1ccc(Br)cc1S(=O)(=O)Nc1ccnn1C [Example V-11, 5-Bromo-2-methoxy-N-(2-methyl-2H-pyrazol-3-yl)-benzenesulfonamide] |
| > 1000 | COc1ccc(OC)c(S(=O)(=O)Nc2ccnn2C)c1 [Example V-12, 2,5-Dimethoxy-N-(2-methyl-2H-pyrazol-3-yl)-benzenesulfonamide] |
| > 1000 | COc1ccc(Br)cc1S(=O)(=O)Nc1cc(C(F)(F)F)n(C)n1 [Example V-13, 5-Bromo-2-methoxy-N-(1-methyl-5-trifluoromethyl-1H-pyrazol-3-yl)-benzenesulfonamide] |

| IC50 [nM] | SMILES |
| --- | --- |
| > 1000 | COc1ccc(OC)c(S(=O)(=O)Nc2cc(C(F)(F)F)n(C)n2)c1 [Example V-14, 2,5-Dimethoxy-N-(1-methyl-5-trifluoromethyl-1H-pyrazol-3-yl)-benzenesulfonamide] |
| > 1000 | COc1ccc(Br)cc1S(=O)(=O)Nc1nccs1 [Example V-15, 5-Bromo-2-methoxy-N-thiazol-2-yl-benzenesulfonamide] |
| > 1000 | COc1ccc(OC)c(S(=O)(=O)Nc2nccs2)c1 [Example V-16, 2,5-Dimethoxy-N-thiazol-2-yl-benzenesulfonamide] |
| > 1000 | COc1ccc(Br)cc1S(=O)(=O)Nc1nnc(C)s1 [Example V-17, 5-Bromo-2-methoxy-N-(5-methyl-[1,3,4]thiadiazol-2-yl)-benzenesulfonamide] |
| > 1000 | COc1ccc(OC)c(S(=O)(=O)Nc2nnc(C)s2)c1 [Example V-18, 2,5-Dimethoxy-N-(5-methyl-[1,3,4]thiadiazol-2-yl)-benzenesulfonamide] |
| > 1000 | COc1ccc(Br)cc1S(=O)(=O)Nc1nnc(C)o1 [Example V-21, 5-Bromo-2-methoxy-N-(5-methyl-[1,3,4]oxadiazol-2-yl)-benzenesulfonamide] |
| > 1000 | COc1ccc(OC)c(S(=O)(=O)Nc2nnc(C)o2)c1 [Example V-22, 2,5-Dimethoxy-N-(5-methyl-[1,3,4]oxadiazol-2-yl)-benzenesulfonamide] |
| 100 to 1000 | COc1ccc(Br)cc1S(=O)(=O)Nc1cccnn1 [Example V-24, 5-Bromo-2-methoxy-N-pyridazin-3-yl-benzenesulfonamide] |
| > 1000 | COc1ccc(OC)c(S(=O)(=O)Nc2cccnn2)c1 [Example V-25, 2,5-Dimethoxy-N-pyridazin-3-yl-benzenesulfonamide] |
| > 1000 | COc1ccc(Br)cc1S(=O)(=O)Nc1ccnnc1 [Example V-26, 5-Bromo-2-methoxy-N-pyridazin-4-yl-benzenesulfonamide] |
| > 1000 | COc1ccc(OC)c(S(=O)(=O)Nc2ccnnc2)c1 [Example V-27, 2,5-Dimethoxy-N-pyridazin-4-yl-benzenesulfonamide] |
| > 1000 | COc1ccc(Br)cc1S(=O)(=O)Nc1ncccn1 [Example V-28, 5-Bromo-2-methoxy-N-pyrimidin-2-yl-benzenesulfonamide] |
| > 1000 | COc1ccc(OC)c(S(=O)(=O)Nc2ncccn2)c1 [Example V-29, 2,5-Dimethoxy-N-pyrimidin-2-yl-benzenesulfonamide] |
| < 100 | COc1ncc(Br)cc1S(=O)(=O)Nc1cnc2ccccc2c1 [Example VI-1, 5-Bromo-2-methoxy-pyridine-3-sulfonic acid quinolin-3-ylamide] |
| > 1000 | CCN(c1cnc2ccccc2c1)S(=O)(=O)c1cc(Br)ccc1OC [Example VII-2, 5-Bromo-2-methoxy-N-ethyl-N-(quinolin-3-yl)benzenesulfonamide] |
| > 1000 | CCCN(c1cnc2ccccc2c1)S(=O)(=O)c1cc(Br)ccc1OC [Example VII-3, 5-Bromo-2-methoxy-N-propyl-N-(quinolin-3-yl)benzenesulfonamide] |
| > 1000 | COc1ccc(Br)cc1S(=O)(=O)N(c1cnc2ccccc2c1)C(C)C [Example VII-4, 5-Bromo-N-isopropyl-2-methoxy-N-(quinolin-3-yl)benzenesulfonamide] |
| > 1000 | CCCCN(c1cnc2ccccc2c1)S(=O)(=O)c1cc(Br)ccc1OC [Example VII-5, 5-Bromo-N-butyl-2-methoxy-N-(quinolin-3-yl)benzenesulfonamide] |

| SMILES | IC50 [nM] |
| --- | --- |
| COc1ccc(Br)cc1S(=O)(=O)Nc1cnc2ccc(C(=O)O)cc2c1 [Example IX-5, 3-(5-Bromo-2-methoxy-benzenesulfonylamino)-quinoline-6-carboxylic Acid] | 100 to 1000 |
| CNC(=O)c1ccc2ncc(NS(=O)(=O)c3cc(Br)ccc3OC)cc2c1 [Example IX-7, 3-(5-Bromo-2-methoxy-benzenesulfonylamino)-quinoline-6-carboxylic Acid Methylamide] | < 100 |
| COC(=O)c1ccc2ncc(NS(=O)(=O)c3cc(OC)ccc3OC)cc2c1 [Example IX-8, 3-(2,5-Dimethoxy-benzenesulfonylamino)-quinoline-6-carboxylic Acid Methyl Ester] | 100 to 1000 |
| COc1ccc(OC)c(S(=O)(=O)Nc2cnc3ccc(C(=O)O)cc3c2)c1 [Example IX-9, 3-(2,5-Dimethoxy-benzenesulfonylamino)-quinoline-6-carboxylic Acid] | > 1000 |
| COc1ccc(OC)c(S(=O)(=O)Nc2cnc3ccc(C(N)=O)cc3c2)c1 [Example IX-10, 3-(2,5-Dimethoxy-benzenesulfonylamino)-quinoline-6-carboxylic Acid Amide] | 100 to 1000 |
| CNC(=O)c1ccc2ncc(NS(=O)(=O)c3cc(OC)ccc3OC)cc2c1 [Example IX-11, 3-(2,5-Dimethoxy-benzenesulfonylamino)-quinoline-6-carboxylic Acid Methylamide] | 100 to 1000 |
| COc1ccc(OC)c(S(=O)(=O)Nc2cnc3ccc(C(=O)NC4CC4)cc3c2)c1 [Example IX-13, 3-(2,5-Dimethoxy-benzenesulfonylamino)-quinoline-6-carboxylic Acid Cyclopropylamide] | 100 to 1000 |
| COc1ccc(OC)c(S(=O)(=O)Nc2cnc3ccc(C(=O)NC4CCCCC4)cc3c2)c1 [Example IX-14, 3-(2,5-Dimethoxy-benzenesulfonylamino)-quinoline-6-carboxylic Acid Cyclohexylamide] | < 100 |
| COc1ccc(Br)cc1S(=O)(=O)Nc1ncco1 [Example V-3, 5-Bromo-2-methoxy-N-oxazol-2-yl-benzenesulfonamide] | > 1000 |
| COc1ccc(OC)c(S(=O)(=O)Nc2cc[nH]n2)c1 [Example V-8, 2,5-Dimethoxy-N-(1H-pyrazol-3-yl)-benzenesulfonamide] | > 1000 |
| COc1ccc(Br)cc1S(=O)(=O)Nc1nnc(C(F)(F)F)s1 [Example V-19, 5-Bromo-2-methoxy-N-(5-trifluoromethyl-[1,3,4]thiadiazol-2-yl)-benzenesulfonamide] | 100 to 1000 |
| COc1ccc(OC)c(S(=O)(=O)Nc2nnc(C(F)(F)F)s2)c1 [Example V-20] | > 1000 |
| COc1ccc(OC)c(S(=O)(=O)Nc2cnccn2)c1 [Example V-23, 2,5-Dimethoxy-N-pyrazin-2-yl-benzenesulfonamide] | > 1000 |
